Reference: patent US8609610B2, “Inhibitors of the trypsin-like site of the proteasome and methods of use thereof” (Trustees of Dartmouth College, priority 2011, dated 2013)

Tests used:
[1] = tested on: MM cell lines NCI-H929, MM1.R, RPMI-8226, KMS-18, KMS-12-BM; test: ALAMAR BLUE viability, panel of MM cell lines; format: cell-based
Experimental: RPMI-8226 and NCI-H929 cells were cultured in RPMI-1640 supplemented with 10% fetal bovine serum, penicillin, streptomycin, and plasmocin in 5% CO2 humidified incubator. HEK-293T cells were cultured in DMEM containing 10% fetal calf serum, 10 units/mL penicillin, and 10 μg/mL streptomycin in a 7% CO2 humidified incubator. Viability of multiple myeloma cells was measured with ALAMAR BLUE mitochondrial dye conversion assay. Viability of peripheral blood mononuclear cells (PBMNCs) was measured using CELL TITER-GLO luminescent cell viability assay (Promega), which is based on quantification of ATP present in the cells. Caspase-3/7 activity was measured using APO-ONE 3/7 homogeneous assay (Promega).
In a parallel set of experiments, it was tested whether co-inhibiting caspase-like and trypsin-like sites suffices to induce cytotoxicity in the absence of inhibition of the chymotrypsin-like sites and whether such dual inhibition is a stronger sensitizer to LU-005 than inhibition of the trypsin-like sites alone. Four additional myeloma cell lines, MM1.R, RPMI-8226, KMS-18, and KMS-12-BM, were selected for these experiments. These cell lines vary up to 40-fold in their sensitivity to bortezomib and NC-005 (Britton, et al. (2009) supra). In all experiments, NC-022 was used at a concentration that inhibited trypsin-like activity by more than 90% after a 6-hour incubation.

β2 and β2i sites = test: MV-151 label-competition in extracts of RPMI-8226 MM cells; format: biochemical; conditions: extracts of RPMI-8226 cells, MV-151 probe
Excerpt: Multiple myeloma cells express constitutive proteasomes and immunoproteasomes, and substrates used for the measurement of activity were cleaved by both. To determine whether there were any differences in inhibition of constitutive proteasomes or immunoproteasomes by NC-002, NC-012, and NC-022, the fluorescent activity-based probe MV-151 (Verdoes, et al. (2006) Chem. Biol. 13:1217-1226) was used in a label-competition experiment. Extracts of RPMI-8226 MM cells (which express more immunoproteasomes than NCI-H929 cells) were treated first with the NC inhibitors and then with the MV-151 probe. This was followed by fractionation on SDS-PAGE to separate proteasome subunits and imaging to reveal those subunits labeled by the probe (i.e., unmodified by the inhibitors).

[2] = molecular target: caspase-like site of 26S proteasomes (Oryctolagus cuniculus, UniProt A0A5F9DQW2); test: Inhibition of purified 26S proteasomes, substrate Ac-nLPnLD-amc; format: biochemical, rabbit; conditions: >>30 no inhibition at 30 μM, >30 inhibition between 10 and 50% at 30 μM, read-out: IC50 for sites in 26S proteasomes: Casp-L
Chain of caspase-like site of 26S proteasomes (A0A5F9DQW2 1-212): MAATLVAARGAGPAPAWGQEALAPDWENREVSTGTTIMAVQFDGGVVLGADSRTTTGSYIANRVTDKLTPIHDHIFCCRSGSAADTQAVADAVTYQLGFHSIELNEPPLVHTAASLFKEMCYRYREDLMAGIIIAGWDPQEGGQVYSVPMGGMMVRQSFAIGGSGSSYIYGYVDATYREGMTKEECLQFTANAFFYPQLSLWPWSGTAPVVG

SMILES: Cc1c(O)cccc1C(=O)N[C@H](C(=O)N[C@@H](CO)C(=O)N[C@@H](CCCNC(=N)N)C(=O)[C@@]1(C)CO1)C(C)C [NC-022, HMB-Val-Ser-Arg-ek]
- sensitization to LU-005 compared with NC-001 ([1]; NCI-H929 and KMS-12-BM): more potent sensitizer than NC-001
- reduction of the IC50 for LU-005 ([1]; all MM cell lines, NC-022 at concentration inhibiting trypsin-like activity >90% after 6 h): 4-10 fold
- reduction of cell viability ([1]; continuous exposure to mixture of NC-022 and NC-001, both sites blocked by more than 90%): 20-50%
- sensitization of MM cells to LU-005 ([1]; mixture of NC-001 and NC-022 after 1 hour LU-005): much stronger sensitizer than NC-022 alone
- inhibition of constitutive (β2) versus immunoproteasome (β2i) trypsin-like sites (β2 and β2i sites): equipotent inhibitors of the trypsin-like sites of constitutive and immunoproteasomes
- IC50 [2]: 16 µM
